Experimental data taken from PMC3195835 (International journal of pharmaceutics, 2011).
Values belong to the compound of their own block, whether it stands above or below them.

Tests used:
MRP2 [1] = molecular target: T1, MRP2 (Homo sapiens, UniProt Q92887); assay: in vitro
P-gp [2] = molecular target: T2, P-gp (Homo sapiens, UniProt P08183); assay: in vitro; settings: MDCK-MDR1
[3] = ref Allen et al., 2000, Zhanel and Noreddin, 2001, cited from earlier work
P-gp [4] = molecular target: T2, P-gp; settings: MDCK-MDR1, 150 min
MRP2 [5] = molecular target: T1, MRP2; assay: cell-based
MDCKII-MDR1 cells [6] = assay: ATP assay in MDCKII-MDR1 cells; type: cell-based, canine; settings: 150min
LS-180 cells = assay: [14C] erythromycin uptake in treated LS-180 cells; type: cell-based, human; settings: LS-180 cells treated 72hrs; gemifloxacin 2.5, 5, 7.5μM, rifampin 10μM
MDCKII-MDR1 cells [7] = assay: Cell proliferative; type: cell-based, canine; settings: 150min
P-gp [8] = molecular target: T2, P-gp; assay: cell-based
MDCKII-MRP2 cells [9] = assay: ATP assay in MDCKII-MRP2 cells; type: cell-based, canine; settings: 150min
MDCKII-MRP2 cells [10] = assay: Cell proliferative; type: cell-based, canine; settings: 150min
P-gp [11] = molecular target: T2, P-gp; assay: Cellular accumulation of calcein-AM in MDCKII-MDR1 cells; type: cell-based; settings: calcein-AM 0.05μM, 15min, quinidine 100μM, gemifloxacin 250μM
[12] = all concentrations 1μM to 1000μM except 1000μM
[13] = gemifloxacin 1000μM, data not shown
[14] = all other concentrations (1μM to below 1000μM)

T2 sequence (P08183 whole entry): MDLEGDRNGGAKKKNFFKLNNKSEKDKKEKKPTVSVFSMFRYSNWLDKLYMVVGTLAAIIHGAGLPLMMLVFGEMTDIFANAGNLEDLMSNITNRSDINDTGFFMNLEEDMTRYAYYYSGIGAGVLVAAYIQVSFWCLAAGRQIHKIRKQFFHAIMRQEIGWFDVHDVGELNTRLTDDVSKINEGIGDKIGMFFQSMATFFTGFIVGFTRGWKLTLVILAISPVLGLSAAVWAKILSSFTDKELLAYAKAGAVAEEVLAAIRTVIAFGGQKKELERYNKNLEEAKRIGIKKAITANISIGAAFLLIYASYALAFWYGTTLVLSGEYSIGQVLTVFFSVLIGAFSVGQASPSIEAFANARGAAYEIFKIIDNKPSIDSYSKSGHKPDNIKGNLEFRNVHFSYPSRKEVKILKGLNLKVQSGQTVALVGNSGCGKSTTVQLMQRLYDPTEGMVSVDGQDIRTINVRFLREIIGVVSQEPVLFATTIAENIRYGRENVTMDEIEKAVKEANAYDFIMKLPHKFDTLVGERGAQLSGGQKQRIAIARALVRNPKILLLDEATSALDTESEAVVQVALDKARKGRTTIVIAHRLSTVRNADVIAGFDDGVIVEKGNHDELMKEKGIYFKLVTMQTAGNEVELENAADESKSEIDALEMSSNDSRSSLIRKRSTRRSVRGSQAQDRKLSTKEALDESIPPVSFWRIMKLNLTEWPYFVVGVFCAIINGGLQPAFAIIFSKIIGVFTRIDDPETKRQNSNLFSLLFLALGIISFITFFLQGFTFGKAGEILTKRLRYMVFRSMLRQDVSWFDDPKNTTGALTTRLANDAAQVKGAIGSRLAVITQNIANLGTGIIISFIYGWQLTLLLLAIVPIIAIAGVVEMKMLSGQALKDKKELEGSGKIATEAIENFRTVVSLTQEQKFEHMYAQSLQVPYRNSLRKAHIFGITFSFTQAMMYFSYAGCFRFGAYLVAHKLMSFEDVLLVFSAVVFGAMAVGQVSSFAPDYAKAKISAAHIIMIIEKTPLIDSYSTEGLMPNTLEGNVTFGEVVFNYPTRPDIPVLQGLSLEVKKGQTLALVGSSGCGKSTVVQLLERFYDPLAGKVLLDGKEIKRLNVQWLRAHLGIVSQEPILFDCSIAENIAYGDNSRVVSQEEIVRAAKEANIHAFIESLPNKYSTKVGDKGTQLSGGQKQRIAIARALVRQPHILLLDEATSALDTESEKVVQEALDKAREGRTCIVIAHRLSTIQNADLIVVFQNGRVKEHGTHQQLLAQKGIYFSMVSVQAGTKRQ
T1 sequence (Q92887 whole entry): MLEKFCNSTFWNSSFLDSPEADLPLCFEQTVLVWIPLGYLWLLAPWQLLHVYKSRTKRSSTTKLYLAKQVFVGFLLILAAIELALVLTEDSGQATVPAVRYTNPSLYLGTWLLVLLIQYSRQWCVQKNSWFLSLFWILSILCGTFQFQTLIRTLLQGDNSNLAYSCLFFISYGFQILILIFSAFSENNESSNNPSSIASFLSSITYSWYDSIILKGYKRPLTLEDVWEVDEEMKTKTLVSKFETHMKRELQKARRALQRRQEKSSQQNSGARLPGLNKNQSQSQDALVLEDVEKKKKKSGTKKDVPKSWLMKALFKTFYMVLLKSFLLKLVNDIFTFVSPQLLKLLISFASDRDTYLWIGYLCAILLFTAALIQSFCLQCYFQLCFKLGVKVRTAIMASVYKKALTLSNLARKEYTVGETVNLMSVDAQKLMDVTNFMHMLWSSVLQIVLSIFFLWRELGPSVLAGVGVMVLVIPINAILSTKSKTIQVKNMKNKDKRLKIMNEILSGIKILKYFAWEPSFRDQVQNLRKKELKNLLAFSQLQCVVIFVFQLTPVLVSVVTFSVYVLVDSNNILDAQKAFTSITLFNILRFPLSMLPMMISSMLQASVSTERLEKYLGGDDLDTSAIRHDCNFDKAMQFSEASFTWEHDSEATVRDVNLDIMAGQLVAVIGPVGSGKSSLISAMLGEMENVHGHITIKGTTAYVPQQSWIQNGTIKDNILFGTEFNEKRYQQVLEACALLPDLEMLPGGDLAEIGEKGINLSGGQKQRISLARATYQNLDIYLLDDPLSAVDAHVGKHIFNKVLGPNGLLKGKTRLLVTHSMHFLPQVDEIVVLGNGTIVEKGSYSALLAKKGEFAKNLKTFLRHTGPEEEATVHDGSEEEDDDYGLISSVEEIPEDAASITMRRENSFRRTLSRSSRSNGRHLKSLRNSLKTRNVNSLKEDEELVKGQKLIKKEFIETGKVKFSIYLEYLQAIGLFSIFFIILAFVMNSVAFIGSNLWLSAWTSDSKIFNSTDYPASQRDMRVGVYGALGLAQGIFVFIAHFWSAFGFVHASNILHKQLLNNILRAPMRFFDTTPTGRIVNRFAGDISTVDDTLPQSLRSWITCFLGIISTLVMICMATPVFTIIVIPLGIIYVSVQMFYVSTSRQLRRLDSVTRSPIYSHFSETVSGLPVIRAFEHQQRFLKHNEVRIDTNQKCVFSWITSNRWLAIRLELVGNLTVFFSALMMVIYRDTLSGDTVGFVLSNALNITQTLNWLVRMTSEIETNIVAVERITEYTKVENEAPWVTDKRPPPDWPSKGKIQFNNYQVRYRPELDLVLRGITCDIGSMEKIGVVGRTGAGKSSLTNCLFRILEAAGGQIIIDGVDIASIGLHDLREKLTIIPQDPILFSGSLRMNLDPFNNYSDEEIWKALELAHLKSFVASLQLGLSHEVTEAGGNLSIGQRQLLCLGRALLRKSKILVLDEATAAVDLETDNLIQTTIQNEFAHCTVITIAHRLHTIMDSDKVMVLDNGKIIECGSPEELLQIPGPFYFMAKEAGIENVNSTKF

Papp A→B at 150 min (MRP2 [1]): 3.76 ± 1.37 ×10⁻⁶ cm/s
Papp B→A at 150 min (MRP2 [1]): 18.5 ± 1.94 ×10⁻⁶ cm/s
efflux ratio at 150 min (MRP2 [1]): 4.93
Papp A→B at 150 min (P-gp [2]): 2.96 ± 0.37 ×10⁻⁶ cm/s
Papp B→A at 150 min (P-gp [2]): 10.6 ± 0.86 ×10⁻⁶ cm/s
efflux ratio at 150 min (P-gp [2]): 3.56
SMILES: CC[C@H]1OC(=O)[C@H](C)[C@@H](O[C@H]2C[C@@](C)(OC)[C@@H](O)[C@H](C)O2)[C@H](C)[C@@H](O[C@@H]2O[C@H](C)C[C@H](N(C)C)[C@H]2O)[C@](C)(O)C[C@@H](C)C(=O)[C@H](C)[C@@H](O)[C@]1(C)O [[^14C] erythromycin, erythromycin]

SMILES: COc1c(N2CCNC(C)C2)c(F)cc2c(=O)c(C(=O)O)cn(C3CC3)c12 (stereo not drawn) [gatifloxacin]
Absolute (oral) bioavailability [3]: 96%

Apparent permeability of [14C] erythromycin, AP-BL, in presence of test compound (P-gp [4]): 5.24 ± 0.52 × 10-6 cm/sec
Apparent permeability of [14C] erythromycin, BL-AP, in presence of test compound (P-gp [4]): 7.38 ± 0.72 × 10-6 cm/sec
IC50 (MRP2 [5]): 16 ± 2 µM
IC50 (P-gp [8]): 123 ± 2 µM
SMILES: CO/N=C1\CN(c2nc3c(cc2F)c(=O)c(C(=O)O)cn3C2CC2)CC1CN (stereo not drawn) [gemifloxacin]
Effect on ATP levels compared to control (MDCKII-MDR1 cells [6]; [12]): did not significantly alter ATP levels
Increase in ATP level (MDCKII-MDR1 cells [6]; [13]): ~15%
Decrease in cellular accumulation of [14C] erythromycin post treatment (LS-180 cells): ~20%
Cytotoxicity (MTS) (MDCKII-MDR1 cells [7]; [14]): non-cytotoxic
Decrease in cell viability (MTS) (MDCKII-MDR1 cells [7]; [13]): ~25%
Time to peak concentration ([3]; oral administration): 0.5 to 2 h
Absolute (oral) bioavailability [3]: 71%
Effect on ATP levels compared to control (MDCKII-MRP2 cells [9]; [12]): did not significantly alter ATP levels
Increase in ATP level (MDCKII-MRP2 cells [9]; [13]): ~10%
Cytotoxicity (MTS) (MDCKII-MRP2 cells [10]; [14]): non-cytotoxic
Decrease in cell viability (MTS) (MDCKII-MRP2 cells [10]; [13]): ~20%

Increase in intracellular calcein fluorescence (P-gp [11]): doubled
SMILES: C=C[C@H]1C[N@@]2CC[C@H]1C[C@@H]2[C@@H](O)c1ccnc2ccc(OC)cc12 [quinidine]

SMILES: CO[C@H]1/C=C/O[C@@]2(C)Oc3c(C)c(O)c4c(O)c(c(/C=N/N5CCN(C)CC5)c(O)c4c3C2=O)NC(=O)/C(C)=C\C=C\[C@H](C)[C@H](O)[C@@H](C)[C@@H](O)[C@@H](C)[C@H](OC(C)=O)[C@@H]1C [rifampin]
Decrease in cellular accumulation of [14C] erythromycin post treatment (LS-180 cells): ~20%
